According to PMC5429603, “Discovery and characterization of verinurad, a potent and specific inhibitor of URAT1 for the treatment of hyperuricemia and gout” (Scientific Reports, 2017):

Key:
rat URAT1 r-V25M = molecular target: T1, rat URAT1 r-V25M (Rattus norvegicus, UniProt Q3ZAV1, V25M); assay: URAT1 activity assay, r-V25M; type: cell-based
T1 construct: expressed in transfected cells; host or cells: HEK-293T
Text: (§1) Human URAT1 (GenBank BC053348.1, Homo sapiens SLC22A12), rat URAT1 (NCBI NM_001034943.1, Rattus norvegicus Slc22a12) and human OAT4 (NCBI NM_018484.2, Homo sapiens SLC22A11) genes were purchased from Origene Technologies, Inc. and subcloned into pCMV6/neo using NotI. Where indicated, controls transfections used pCMV6/neo. Mutants were produced by site-directed mutagenesis using the QuikChange Lightning Multi Site-Directed Mutagenesis Kit (Agilent Technologies). […] Mutagenic primer sequences are provided in ref. [15] and mutagenic primer sequences for previously unreported mutants shown in Supplementary Table 1. All constructs used in this study were untagged. Human OAT1 was purchased from Fisher Scientific (catalog # MHS1010–7508183 in pSPORT6, NCBI NM_153276.2, Homo sapiens SLC22A6).
(§2) HEK-293T cells were maintained in DMEM/high glucose/L-glutamine/HEPES supplemented with 1 mM sodium pyruvate (Life Technologies) and 10% FBS (PAA Laboratories) at 37 °C in 5% CO2. […]
(§3) URAT1 and OAT4 activity assays were performed in assay buffer consisting of 25 mM MES pH 5.5 (from a 1 M MES solution [Sigma] adjusted to pH 5.5 with sodium hydroxide), 125 mM sodium gluconate, 4.8 mM potassium gluconate, 1.2 mM monobasic potassium phosphate, 1.2 mM magnesium sulfate, 1.3 mM calcium gluconate and 5.6 mM glucose. […] Each treatment was measured in triplicate.

human URAT1 h-R477K = molecular target: T2, human URAT1 h-R477K (Homo sapiens, UniProt Q96S37, R477K); assay: URAT1 activity assay, h-R477K; type: cell-based
T2 construct: expressed in transfected cells; host or cells: HEK-293T
T2 sequence (Q96S37 1-553 R477K): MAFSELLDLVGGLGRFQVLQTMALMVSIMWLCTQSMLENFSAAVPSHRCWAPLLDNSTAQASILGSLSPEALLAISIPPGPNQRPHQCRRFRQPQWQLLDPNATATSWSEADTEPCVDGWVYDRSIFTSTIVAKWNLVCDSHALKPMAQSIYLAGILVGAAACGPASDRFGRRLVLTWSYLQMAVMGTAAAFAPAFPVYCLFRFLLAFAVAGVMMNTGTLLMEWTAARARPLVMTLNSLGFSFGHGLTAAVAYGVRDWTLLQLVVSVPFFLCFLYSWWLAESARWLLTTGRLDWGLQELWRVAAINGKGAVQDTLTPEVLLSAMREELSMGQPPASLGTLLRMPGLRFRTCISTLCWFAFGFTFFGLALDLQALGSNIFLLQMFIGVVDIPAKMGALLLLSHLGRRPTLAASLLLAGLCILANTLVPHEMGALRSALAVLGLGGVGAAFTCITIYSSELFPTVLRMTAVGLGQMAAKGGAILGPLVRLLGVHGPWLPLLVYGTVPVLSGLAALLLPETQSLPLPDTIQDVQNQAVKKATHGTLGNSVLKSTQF
Text: as §1
(§4) HEK-293T cells were maintained in DMEM/high glucose/L-glutamine/HEPES supplemented with 1 mM sodium pyruvate (Life Technologies) and 10% FBS (PAA Laboratories) at 37 °C in 5% CO2. To express URAT1, OAT4 or OAT1, plasmids were reverse transfected into HEK-293T cells. DNA (10 µg) was mixed with 30 µl of DreamFect Gold (Boca Scientific) in 2 ml OptiMem (Life Technologies). After 20 minutes, 18 ml of media containing 2 × 10^7 cells in suspension was added and mixed, and 200 µl per well were plated onto white clear-bottomed poly-D-lysine coated 96-well plates (BD Biosciences). The cells were assayed the following day.
(§5) URAT1 and OAT4 activity assays were performed in assay buffer consisting of 25 mM MES pH 5.5 (from a 1 M MES solution [Sigma] adjusted to pH 5.5 with sodium hydroxide), 125 mM sodium gluconate, 4.8 mM potassium gluconate, 1.2 mM monobasic potassium phosphate, 1.2 mM magnesium sulfate, 1.3 mM calcium gluconate and 5.6 mM glucose. URAT1 inhibitors were serially diluted into assay buffer and added to the cells for 5 minutes prior to addition of substrate. URAT1-expressing cells were incubated with 100 µM ^14C-uric acid for 10 minutes and OAT4-expressing cells were incubated with 20 µM carboxyfluorescein (Life Technologies, Inc.) for 5 minutes. Cells were then washed three times in 25 mM MES pH 5.5/125 mM sodium gluconate, and solubilized in Ultima Gold (Perkin Elmer) prior to liquid scintillation counting. Each treatment was measured in triplicate.

rat URAT1-Y365F = molecular target: T3, rat URAT1-Y365F (Rattus norvegicus, UniProt Q3ZAV1, Y365F); assay: URAT1 activity assay, r-Y365F; type: cell-based
T3 construct: expressed in transfected cells; host or cells: HEK-293T
T3 sequence (Q3ZAV1 1-553 Y365F): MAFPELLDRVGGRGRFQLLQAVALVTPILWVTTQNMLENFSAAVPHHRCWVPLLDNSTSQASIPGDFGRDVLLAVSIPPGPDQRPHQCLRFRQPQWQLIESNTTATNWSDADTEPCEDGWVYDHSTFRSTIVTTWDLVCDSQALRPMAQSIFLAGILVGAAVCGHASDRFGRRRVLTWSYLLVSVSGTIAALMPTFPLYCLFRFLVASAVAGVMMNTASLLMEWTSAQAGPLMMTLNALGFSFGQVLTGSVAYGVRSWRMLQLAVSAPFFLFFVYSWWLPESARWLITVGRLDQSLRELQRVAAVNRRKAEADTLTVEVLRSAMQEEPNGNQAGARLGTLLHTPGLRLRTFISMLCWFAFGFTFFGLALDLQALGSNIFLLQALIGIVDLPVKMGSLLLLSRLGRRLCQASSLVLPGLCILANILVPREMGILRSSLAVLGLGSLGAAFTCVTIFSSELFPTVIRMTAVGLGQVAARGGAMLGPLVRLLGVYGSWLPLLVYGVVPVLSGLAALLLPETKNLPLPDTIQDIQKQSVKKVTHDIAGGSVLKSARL
Text: as §1, §2, §3

healthy human volunteers = test system: healthy human volunteers; set-up: method as in PMID 28744099; details: humans; cited from earlier work
rat URAT1 r-A21T = rat URAT1 r-A21T (Rattus norvegicus, UniProt Q3ZAV1, A21T); assay: cell-based
Text: as §1, §4, §5

rat URAT1 r-V22M = rat URAT1 r-V22M (Rattus norvegicus, UniProt Q3ZAV1, V22M); assay: cell-based
Text: as §1, §4, §5

rat URAT1 r-Y365F/M481I = rat URAT1 r-Y365F/M481I (Rattus norvegicus, UniProt Q3ZAV1, M481I/Y365F); assay: cell-based
Text: as §1, §4, §5

rat URAT1 r-P27S = rat URAT1 r-P27S (Rattus norvegicus, UniProt Q3ZAV1, P27S); assay: cell-based
Text: as §1, §4, §5

rat URAT1 r-L18V = rat URAT1 r-L18V (Rattus norvegicus, UniProt Q3ZAV1, L18V); assay: cell-based
Text: as §1, §4, §5

rat URAT1 r-N35S/Y365F = rat URAT1 r-N35S/Y365F (Rattus norvegicus, UniProt Q3ZAV1, N35S/Y365F); assay: cell-based
Text: as §1, §4, §5

rat URAT1 r-V31L = rat URAT1 r-V31L (Rattus norvegicus, UniProt Q3ZAV1, V31L); assay: cell-based
Text: as §1, §4, §5

rat URAT1 r-L29M = rat URAT1 r-L29M (Rattus norvegicus, UniProt Q3ZAV1, L29M); assay: cell-based
Text: as §1, §4, §5

rat URAT1 r-P27S, sequence (Q3ZAV1 whole entry P27S): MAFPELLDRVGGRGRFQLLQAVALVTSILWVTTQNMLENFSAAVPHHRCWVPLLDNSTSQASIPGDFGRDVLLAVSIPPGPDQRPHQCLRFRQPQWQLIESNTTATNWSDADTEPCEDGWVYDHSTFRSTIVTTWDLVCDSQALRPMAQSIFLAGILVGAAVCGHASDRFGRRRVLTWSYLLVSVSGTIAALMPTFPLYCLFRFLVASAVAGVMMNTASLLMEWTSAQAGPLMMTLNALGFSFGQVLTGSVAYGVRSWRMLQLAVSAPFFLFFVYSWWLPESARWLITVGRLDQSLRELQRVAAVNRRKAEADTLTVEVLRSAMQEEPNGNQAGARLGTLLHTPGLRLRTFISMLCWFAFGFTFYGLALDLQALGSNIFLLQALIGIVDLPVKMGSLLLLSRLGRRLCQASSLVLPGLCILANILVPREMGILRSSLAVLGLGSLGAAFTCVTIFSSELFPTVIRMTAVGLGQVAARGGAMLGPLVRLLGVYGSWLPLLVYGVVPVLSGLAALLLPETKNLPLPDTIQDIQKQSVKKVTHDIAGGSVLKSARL
T1 sequence (Q3ZAV1 whole entry V25M): as the sequence (Q3ZAV1 whole entry P27S) above, with V25M, S27P counted along it
rat URAT1 r-V31L, sequence (Q3ZAV1 whole entry V31L): as the sequence (Q3ZAV1 whole entry P27S) above, with S27P, V31L counted along it
rat URAT1 r-A21T, sequence (Q3ZAV1 whole entry A21T): as the sequence (Q3ZAV1 whole entry P27S) above, with A21T, S27P counted along it
rat URAT1 r-Y365F/M481I, sequence (Q3ZAV1 whole entry Y365F/M481I): as the sequence (Q3ZAV1 whole entry P27S) above, with S27P, Y365F, M481I counted along it
rat URAT1 r-N35S/Y365F, sequence (Q3ZAV1 whole entry N35S/Y365F): as the sequence (Q3ZAV1 whole entry P27S) above, with S27P, N35S, Y365F counted along it
rat URAT1 r-V22M, sequence (Q3ZAV1 whole entry V22M): as the sequence (Q3ZAV1 whole entry P27S) above, with V22M, S27P counted along it
rat URAT1 r-L18V, sequence (Q3ZAV1 whole entry L18V): as the sequence (Q3ZAV1 whole entry P27S) above, with L18V, S27P counted along it
rat URAT1 r-L29M, sequence (Q3ZAV1 whole entry L29M): as the sequence (Q3ZAV1 whole entry P27S) above, with S27P, L29M counted along it

- fold increase in affinity (rat URAT1 r-V25M; r-V25M vs rat URAT1): 2.3 fold
- IC50 (rat URAT1 r-V25M; r-V25M, TM1 point mutant, read-out: Verinurad affinity (IC50)): 18 ± 3.2 µM
- fold reduced affinity compared to human URAT1 (human URAT1 h-R477K; h-R477K): 9 fold
- IC50 (human URAT1 h-R477K; h-R477K binding site point mutant): 0.23 µM
- fold higher affinity compared to rat URAT1 (rat URAT1-Y365F): 14 fold
- IC50 (rat URAT1-Y365F; TM7 point mutant, read-out: Verinurad affinity (IC50)): 2.9 ± 1.3 µM
- IC50 (rat URAT1 r-A21T): 36 ± 5.2 µM
- IC50 (rat URAT1 r-V22M): 43 ± 2.5 µM
- IC50 (rat URAT1 r-Y365F/M481I): 0.59 µM
- IC50 (rat URAT1 r-P27S): 27 ± 3.4 µM
- fold increase in affinity (rat URAT1 r-P27S; printed r-S27P, vs rat URAT1): 1.5 fold
- IC50 (rat URAT1 r-L18V): 40 ± 6.1 µM
- IC50 (rat URAT1 r-N35S/Y365F): 0.47 µM
- IC50 (rat URAT1 r-V31L): 29 ± 3.2 µM
- IC50 (rat URAT1 r-L29M): 29 ± 3.3 µM
Structure (SMILES): CC(C)(Sc1ccncc1-c1ccc(C#N)c2ccccc12)C(=O)O [Verinurad, 2-((3-(4-cyanonaphthalen-1-yl)pyrindin-4-yl)thio)-2-methylpropanoic acid]
- dose that significantly lowers sUA levels (healthy human volunteers): ≥ 5 mg
